Literature values, collected in patent US20210337800A1, “METHOD AND SYSTEM OF IMPROVING THE PERSONAL PROTECTIVE EQUIPMENT OF […] AND THE GENERAL PUBLIC USING ANT[…]” (Sockdocs Inc., priority 2020, published 2021).

Test system: viruses
Conditions: testing in 2006; no method or virus named

## CCCCCCCCCCCCCCCCCC[N+](C)(C)CCC[Si](OC)(OC)OC.[Cl-] [3-(trimethoxysilyl) propyldimethyloctadecyl ammonium chloride]
  anti-viral activity: showed anti-viral activity
